# Patent EP3431468B1, “USE OF ADIPONECTIN RECEPTOR AGONISTS IN TREATING DEPRESSION, ANXIETY AND NEUROINFLAMMATION” (CENTRE NATIONAL DE LA RECHERCHE SCIENTIFIQUE, priority 2017, dated 2019)
# Experiments:
# [1] = system: corticosterone-treated mice; test: Learned Helplessness (LH), chronic administration; type: in vivo; conditions: chronic 1mg/kg ip daily
# Description: Three well-established mouse models of depression-like behavior have been used in the present study namely i- the long-term corticosterone treatment in the drinking water (David, Samuels et al. 2009), ii- the peripheral administration of LPS (O'Connor, Lawson et al. 2009) iii- the ApN^-/- mice (Liu, Guo et al. 2012). For chronic AdipoRon treatment, the experimental protocol was as followed: • i- Five weeks old male mice (five/cage) received corticosterone (35mg/L dissolved in tap water containing 4 g/L CD) or vehicle alone ad libitum for during 7 consecutive weeks (David, Samuels et al. 2009). Corticosterone and vehicle solutions were changed every 3 days to prevent possible degradation. […]
# All behavioral testing were conducted during the light phase (between 09:00 and 14:00 am) in compliance with the Institutional Animal Care and Use Committee of the University of Nice-Sophia Antipolis (permission number 010344.01 from the French "Ministère de l'Enseignement Supérieur et de la Recherche" granted to Dr. Joëlle Chabry). • Forced Swimming test (FST) - Mice were placed an inescapable transparent tank (20cm diameter, 30cm deep) filled with water (23°C ± 0.5) for six minutes as previously described by Porsolt et al. (1977). […] To initiate testing, mice were placed into the light side and activity was recorded for 5 minutes. […]
# wt mice = test: Rotarod, motor coordination; type: in vivo; conditions: chronic ip 1mg/kg for twenty consecutive days
# Description: All behavioral testing were conducted during the light phase (between 09:00 and 14:00 am) in compliance with the Institutional Animal Care and Use Committee of the University of Nice-Sophia Antipolis (permission number 010344.01 from the French "Ministère de l'Enseignement Supérieur et de la Recherche" granted to Dr. Joëlle Chabry). • Forced Swimming test (FST) - Mice were placed an inescapable transparent tank (20cm diameter, 30cm deep) filled with water (23°C ± 0.5) for six minutes as previously described by Porsolt et al. (1977). The immobility duration, as an index of the resignation, was timed during the last four minutes of the test. A mouse was considered immobile when it remained floating with only slight movements to keep its head out of the water. • Open-field test (OF) - Locomotor activity was determined using open-field (OF) activity. […] Twenty-four hours later, the latency to fall, an index of the motor coordination, was recorded on accelerating rod (from 10 to 40 rpm/min). • Light & Dark test (L&D) - The L&D place preference test was used to assess the anxiety-like behavior. […] To initiate testing, mice were placed into the light side and activity was recorded for 5 minutes. […] The amount of water and 1% sucrose solution was measured twenty-four hours later. […]
structure (smiles),measurement,setting,value
"O=C(COc1ccc(C(=O)c2ccccc2)cc1)NC1CCN(Cc2ccccc2)CC1 [AdipoRon, 2-(4-Benzoylphenoxy)-N-[1-(phenylmethyl)-4-piperidinyl]-acetamide]","resignation-like behavior in the LH test (latency, failures to escape)",[1]; corticosterone-treated mice,reversed the effect of corticosterone
same,"resignation-like behavior in the LH test (latency, failures to escape)",[1]; vehicle-treated mice (no corticosterone),no significant effect
same,motor coordination (rotarod),wt mice,did not significantly modify
